Laboratory results reported in patent US20240158446A1, “CYCLIC COMPOUND HAVING SELECTIVE INHIBITORY ACTION ON KRAS OVER HRAS AND NRAS” (CHUGAI SEIYAKU KABUSHIKI KAISHA, priority 2021, published 2024).
pIC50, pKd: −log10 of the molar value. Where two headings read alike, the source gives them in different places. *1 amine or outer side, *2 acyl side, *3 side chain or, on linkers, in order; H or OH if unused. Where a SMILES comes first, the peptide text is derived from it. Bridges are numbered along the chain shown (N, C = ends). [ ]: non-standard residue; d: D form. The star is where a group is joined. hPhe(3,5-F2-4-CF3) = N[C@@H](CCc1cc(F)c(C(F)(F)F)c(F)c1)C(=O)O; hPhe(3-Cl-4-CF3) = N[C@@H](CCc1ccc(C(F)(F)F)c(Cl)c1)C(=O)O; NPrPhe(4-CF3) = CCCN[C@@H](Cc1ccc(C(F)(F)F)cc1)C(=O)O; 3Oxa8azabicyclo(3.2.1)octane = C1CC2COCC1N2*; NEtPhe(4-Me) = CCN[C@@H](Cc1ccc(C)cc1)C(=O)O; NMeGly(cPent) = CN[C@H](C(=O)O)C1CCCC1; Pro(4,4-F2) = O=C(O)[C@@H]1CC(F)(F)CN1; X11 = CCC[C@](C)(N[*:1])C(=O)[*:2]; NMeD = CN[C@@H](CC(=O)O)C(=O)O; NMeL = CN[C@@H](CC(C)C)C(=O)O; Morpholide = C1CN(*)CCO1; NMeAib = CNC(C)(C)C(=O)O; Nle = CCCC[C@H](N)C(=O)O; Piperidide = C1CCN(*)CC1; Ac5c = NC1(C(=O)O)CCCC1; NEtG = CCNCC(=O)O; Sar = CNCC(=O)O

Assays:
[1] = tested on: human lung cancer strain NCI-H441;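 also: cell proliferation inhibition after four days measured by CellTiter-Glo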
[2] = biological target: GDP-bound HRAS wild-type protein (Homo sapiens, UniProt P01112); test: Binding to HRAS by surface plasmon resonance (SPR), Single Cycle Kinetics; conditions: SPR, GDP-bound HRAS wild-type protein vs GDP-bound KRAS wild-type protein
Sequence of GDP-bound HRAS wild-type protein (P01112 whole entry): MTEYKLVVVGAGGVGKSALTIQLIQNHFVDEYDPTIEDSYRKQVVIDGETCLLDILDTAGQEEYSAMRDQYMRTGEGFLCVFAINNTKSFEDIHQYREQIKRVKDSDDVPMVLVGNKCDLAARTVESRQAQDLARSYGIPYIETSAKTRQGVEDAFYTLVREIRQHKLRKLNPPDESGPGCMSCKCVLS

[3] = biological target: GDP-bound NRAS wild-type protein (Homo sapiens, UniProt P01111); test: Binding to NRAS by surface plasmon resonance (SPR), Single Cycle Kinetics; conditions: SPR, GDP-bound NRAS wild-type protein vs GDP-bound KRAS wild-type protein
Sequence of GDP-bound NRAS wild-type protein (P01111 whole entry): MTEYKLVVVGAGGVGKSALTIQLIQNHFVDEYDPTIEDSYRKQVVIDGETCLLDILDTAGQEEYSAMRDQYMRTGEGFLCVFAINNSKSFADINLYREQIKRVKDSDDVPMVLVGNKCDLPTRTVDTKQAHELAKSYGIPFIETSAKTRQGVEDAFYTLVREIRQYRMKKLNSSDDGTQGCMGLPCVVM

[4] = biological target: GDP-bound KRAS wild-type protein (Homo sapiens, UniProt P01116); test: Binding to KRAS by surface plasmon resonance (SPR), Single Cycle Kinetics; conditions: GDP-bound KRAS wild-type protein, read-out: KRAS KD
Sequence of GDP-bound KRAS wild-type protein (P01116 whole entry): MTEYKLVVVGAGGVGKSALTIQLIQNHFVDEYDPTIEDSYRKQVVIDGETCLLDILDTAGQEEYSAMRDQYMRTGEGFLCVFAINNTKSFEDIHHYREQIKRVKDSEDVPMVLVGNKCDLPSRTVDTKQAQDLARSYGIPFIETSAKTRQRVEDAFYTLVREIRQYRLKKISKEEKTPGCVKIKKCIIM

[5] = read-out: NCI-H441 IC50, NCI-H441 cells, four days, CellTiter-Glo
[6] = SPR, Single Cycle Kinetics, 1:1 binding model
[7] = SPR Single Cycle Kinetics, 1:1 binding model

Row | SMILES | HRAS/KRAS (ratio of KD value for HRAS to KD value for KRAS) [2] | NRAS/KRAS (ratio of KD value for NRAS to KD value for KRAS) [3] | pKd ([4]; SPR, Single Cycle Kinetics) | also measured
1 | CC[C@H](C)[C@@H]1NC(=O)[C@H](CC(C)C)N(C)C(=O)C[C@@H](C(=O)N2C3CCC2COC3)N(C)C(=O)[C@H](C2CCCC2)N(C)C(=O)C2(CCCC2)NC(=O)[C@@H]2CCCN2C(=O)[C@H](CCc2ccc(C(F)(F)F)c(Cl)c2)NC(=O)CN(C)C(=O)[C@H](Cc2ccc(C)cc2)N(CC)C(=O)CN(C)C(=O)CN(C)C1=O [PP0051] ([NMeL]I[Sar][Sar][NEtPhe(4-Me)][Sar][hPhe(3-Cl-4-CF3)]P[Ac5c][NMeGly(cPent)][NMeD]-{3Oxa8azabicyclo(3.2.1)octane}; lactam N-11) | – | – | – | pIC50 [1]: 7.66
2 | CCCC[C@@H]1NC(=O)[C@H](CCc2ccc(C(F)(F)F)c(Cl)c2)NC(=O)CN(C)C(=O)[C@H](Cc2ccc(C)cc2)N(CC)C(=O)CN(C)C(=O)CN(C)C(=O)[C@H]([C@@H](C)CC)NC(=O)[C@H](CC(C)C)N(C)C(=O)C[C@@H](C(=O)N2CCCCC2)N(C)C(=O)[C@H](CC(C)C)NC(=O)C(C)(C)N(C)C1=O [PP0050] ([NMeL]I[Sar][Sar][NEtPhe(4-Me)][Sar][hPhe(3-Cl-4-CF3)][Nle][NMeAib]L[NMeD]-Piperidide; lactam N-11) | – | – | – | pIC50 [1, 5]: 6.30
3 | CCO[C@@H]1C[C@H]2C(=O)NC3(CCC3)C(=O)N(C)[C@@H](C(CC)CC)C(=O)N(C)[C@H](C(=O)N3CCCCC3)CC(=O)N(C)[C@H]3CCC/C=C/c4ccc(cc4)C[C@@H](C(=O)N(C)CC(=O)N[C@@H](CCc4ccc(Cl)c(Cl)c4)C(=O)N2C1)N1CC/C=C\C[C@@H](C1=O)N(C)C(=O)CN(C1CC1)C(=O)[C@H]([C@@H](C)CC)NC3=O [PP3039] | – | – | – | pIC50 [1, 5]: 7.74
4 | CC[C@H](C)[C@@H]1NC(=O)[C@H](CC(C)C)N(C)C(=O)C[C@@H](C(=O)N2CCOCC2)N(C)C(=O)[C@H](C2CCCC2)N(C)C(=O)C2(CCC2)NC(=O)[C@@H]2C[C@@H](OC)CN2C(=O)[C@H](CCc2cc(F)c(C(F)(F)F)c(F)c2)NC(=O)CN(C)C(=O)[C@H](Cc2ccc(C(F)(F)F)cc2)N2CCCC[C@@H](C2=O)N(C)C(=O)CN(C)C1=O [PP1003] | B (a compound having 3 or more and less than 10 is denoted as B) | C (A compound having a KD ratio of 0.1 or more and less than 3 is denoted as C) | 10.12 | –
5 | CCO[C@@H]1C[C@H]2C(=O)NC3(CC(C)(C)C3)C(=O)N(C)[C@@H](C(CC)CC)C(=O)N(C)[C@H](C(=O)N(C)C)CC(=O)N(C)[C@@H](C(C)C)C(=O)N[C@@H]([C@@H](C)CC)C(=O)N(C)CC(=O)N(C)[C@H]3C/C=C\CCN(C3=O)[C@@H](Cc3ccc(C(F)(F)F)cc3)C(=O)N(C)CC(=O)N[C@@H](CCc3ccc(Cl)c(Cl)c3)C(=O)N2C1 [PP2181] | A (a compound having 10 or more and less than 20 is denoted as A) | AA (a compound having 20 or more is denoted as AA) | 8.85 | –
6 | CCC[C@H]1C(=O)N[C@@H](C2CCCC2)C(=O)N(C)CC(=O)N(C)[C@H]2C/C=C\CCN(C2=O)[C@@H](Cc2ccc(C(F)(F)F)cc2)C(=O)N(C)CC(=O)N[C@@H](CCc2ccc(C(F)(F)F)c(Cl)c2)C(=O)N2CC3(CC3)C[C@H]2C(=O)NC2(CC(C)(C)C2)C(=O)N(C)[C@@H](C2CCCC2)C(=O)N(C)[C@H](C(=O)N(C)C)CC(=O)N1C [PP2986] | A (a compound having 10 or more and less than 20 is denoted as A) | AA (a compound having 20 or more is denoted as AA) | 9.47 | –
7 | CCCN1C(=O)CN(C)C(=O)CN(C)C(=O)[C@H]([C@@H](C)CC)NC(=O)[C@@H]2CCCCCOc3ccc(cc3)C[C@H]1C(=O)N(C)CC(=O)N[C@@H](CCc1cc(F)c(C(F)(F)F)c(F)c1)C(=O)N1C[C@H](OCC)C[C@H]1C(=O)NC1(CCCC1)C(=O)N(C)[C@@H](C1CCCC1)C(=O)N(C)[C@H](C(=O)N(C)C)CC(=O)N2C [PP0895] | C (A compound having a KD ratio of 0.1 or more and less than 3 is denoted as C) | C (A compound having a KD ratio of 0.1 or more and less than 3 is denoted as C) | 11.14 | –
8 | CCO[C@@H]1C[C@H]2C(=O)NC3(CCC3)C(=O)N(C)[C@@H](C3CCCC3)C(=O)N(C)[C@H](C(C)C)CC(=O)N(C)[C@@H](CC)C(=O)N[C@@H]([C@@H](C)CC)C(=O)N(C)CC(=O)N(C)[C@H]3C/C=C\CCN(C3=O)[C@@H](CC3CCCCC3)C(=O)N(C)CC(=O)N[C@@H](CCc3cc(F)c(C(F)(F)F)c(F)c3)C(=O)N2C1 [PP1601] | – | – | – | HRAS/KRAS (ratio of KD value for HRAS to KD value for KRAS) ([2]; KD ratio class): A (a compound having 10 or more and less than 20 is denoted as A); NRAS/KRAS (ratio of KD value for NRAS to KD value for KRAS) ([3]; KD ratio class): B (a compound having 3 or more and less than 10 is denoted as B); pKd [4, 6]: 8.68
9 | CCCN1C(=O)CN(C)C(=O)CN(C)C(=O)[C@H]([C@@H](C)CC)NC(=O)[C@H](CC(C)C)N(C)C(=O)C[C@@H](C(=O)N(C)C)N(C)C(=O)[C@H](C2CCCC2)N(C)C(=O)[C@](C)(CCC)NC(=O)[C@@H]2CCCN2C(=O)[C@H](CCc2cc(F)c(C(F)(F)F)c(F)c2)NC(=O)CN(C)C(=O)[C@@H]1Cc1ccc(C(F)(F)F)cc1 [PP0737] ([NMeL]I[Sar][Sar][NPrPhe(4-CF3)][Sar][hPhe(3,5-F2-4-CF3)]P[X11][NMeGly(cPent)][NMeD]-NMe2; lactam N-11) | – | – | – | HRAS/KRAS (ratio of KD value with respect to HRAS to KD value with respect to KRAS) [2]: C (A compound having a KD ratio of 0.1 or more and less than 3 is denoted as C); NRAS/KRAS (ratio of KD value with respect to NRAS to KD value with respect to KRAS) [3]: B (a compound having 3 or more and less than 10 is denoted as B); pKd [4, 7]: 9.26
10 | CCO[C@@H]1C[C@H]2C(=O)NC3(CCC3)C(=O)N(C)[C@@H](C3CCCC3)C(=O)N(C)[C@H](C(=O)N(C)CC)CC(=O)N(C)[C@@H](CC(C)C)C(=O)N[C@@H]([C@@H](C)CC)C(=O)N(C)CC(=O)N(C)[C@H]3C/C=C\CCN(C3=O)[C@@H](Cc3ccc(C(F)(F)F)cc3)C(=O)N(C)CC(=O)N[C@@H](CCc3cc(F)c(C(F)(F)F)c(F)c3)C(=O)N2C1 [PP1300, (2S,8S,12R,14S,20S,23S,27S,30S,36S,38Z)-20-cyclopentyl-8-[2-[3,5-difluoro-4-(trifluoromethyl)phenyl]ethyl]-12-ethoxy-N-ethyl-27-isobutyl-N,4,19,22,26,32,35-heptamethyl-30-[(1S)-1-methylpropyl]-3,6,9,15,18,21,25,28,31,34,42-undecaoxo-2-[[4-(trifluoromethyl)phenyl]methyl]spiro[1,4,7,10,16,19,22,26,29,32,35-undecazatricyclo[34.5.1.0^10,14]dotetracont-38-ene-17,1′-cyclobutane]-23-carboxamide] | – | – | – | HRAS/KRAS (ratio of KD value for HRAS to KD value for KRAS) ([2]; KD ratio class): A (a compound having 10 or more and less than 20 is denoted as A); NRAS/KRAS (ratio of KD value for NRAS to KD value for KRAS) ([3]; KD ratio class): A (a compound having 10 or more and less than 20 is denoted as A); pKd [4, 6]: 10.09
11 | CCC[C@H]1C(=O)N[C@@H]([C@@H](C)CC)C(=O)N(C)CC(=O)N(C)[C@H]2C/C=C\CCN(C2=O)[C@@H](Cc2ccc(C(F)(F)F)cc2)C(=O)N(C)CC(=O)N[C@@H](CCc2ccc(C(F)(F)F)c(Cl)c2)C(=O)N2CC3(CC3)C[C@H]2C(=O)NC2(CC(C)(C)C2)C(=O)N(C)[C@@H]([C@@H](C)CC)C(=O)N(C)[C@H](C(=O)N(C)C)CC(=O)N1C [PP2983] | A (a compound having 10 or more and less than 20 is denoted as A) | AA (a compound having 20 or more is denoted as AA) | 9.30 | –
12 | CCO[C@@H]1C[C@H]2C(=O)NC3(CCC3)C(=O)N(C)[C@@H](C3CCCC3)C(=O)N(C)[C@H](C(=O)N(C)C)CC(=O)N(C)[C@@H](COC)C(=O)N[C@@H]([C@@H](C)CC)C(=O)NCC(=O)N(C)[C@H]3CCCCCN(C3=O)[C@@H](Cc3ccc(C(F)(F)F)cc3)C(=O)N(C)CC(=O)N[C@@H](CCc3cc(F)c(C(F)(F)F)c(F)c3)C(=O)N2C1 [PP0859] | B (a compound having 3 or more and less than 10 is denoted as B) | B (a compound having 3 or more and less than 10 is denoted as B) | 9.51 | –
13 | CCCN1C(=O)CN(C)C(=O)CN(CC)C(=O)[C@H]([C@@H](C)CC)NC(=O)[C@H](CC(C)C)N(C)C(=O)C[C@@H](C(=O)N2CCOCC2)NC(=O)[C@H](C2CCCC2)N(C)C(=O)C2(CCCC2)NC(=O)[C@@H]2CC(F)(F)CN2C(=O)[C@H](CCc2ccc(C(F)(F)F)c(Cl)c2)NC(=O)CN(C)C(=O)[C@@H]1Cc1ccc(C(F)(F)F)cc1 [PP0333] ([NMeL]I[NEtG][Sar][NPrPhe(4-CF3)][Sar][hPhe(3-Cl-4-CF3)][Pro(4,4-F2)][Ac5c][NMeGly(cPent)]D-Morpholide; lactam N-11) | C (A compound having a KD ratio of 0.1 or more and less than 3 is denoted as C) | B (a compound having 3 or more and less than 10 is denoted as B) | – | pKd [4, 7]: 8.62
